Laboratory results from patent publication US8436016B2, “Fused heterocyclic M1 receptor positive allosteric modulators” (priority 2008, dated 2013).
Like-named read-outs stand apart in the source and are kept apart here.

Biological target: T1, acetylcholine muscarinic M1 receptor (Homo sapiens, UniProt P11229)
T1 construct: expressed in transfected cells; host or cells: CHOnfat (CHO cells with an NFAT reporter background) expressing hM1, kept under Geneticin selection
T1 sequence (P11229 1-460): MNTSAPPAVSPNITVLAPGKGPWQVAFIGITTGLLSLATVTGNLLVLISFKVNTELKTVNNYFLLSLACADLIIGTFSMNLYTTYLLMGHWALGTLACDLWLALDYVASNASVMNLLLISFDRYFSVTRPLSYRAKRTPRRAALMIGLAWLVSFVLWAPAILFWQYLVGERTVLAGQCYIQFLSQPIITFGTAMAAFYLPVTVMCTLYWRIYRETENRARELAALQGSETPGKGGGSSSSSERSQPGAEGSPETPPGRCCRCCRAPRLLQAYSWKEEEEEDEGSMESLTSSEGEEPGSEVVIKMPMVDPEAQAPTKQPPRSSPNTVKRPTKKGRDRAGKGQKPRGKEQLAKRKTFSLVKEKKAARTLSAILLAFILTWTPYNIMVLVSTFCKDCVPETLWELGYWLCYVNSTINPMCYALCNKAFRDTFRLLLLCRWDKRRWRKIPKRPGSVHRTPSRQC
Assay: muscarinic FLIPR assay: potentiation of acetylcholine (EC20)-stimulated intracellular Ca2+ in CHOnfat/hM1 cells
Assay type: cell-based
Description: The assay studies the effect of one or several concentrations of test compounds on basal or acetylcholine-stimulated Ca^2+ levels using FLIPR.
Compounds are prepared and subjected to a preincubation period of 4 min. Thereafter, a single EC20 concentration of acetylcholine is added to each well (3 nM final). The intracellular Ca^2+ level of each sample is measured and compared to an acetylcholine control to determine any modulatory activity.
Cells: CHOnfat/hM1, hM2, hM3 or hM4 cells are plated 24 hr before the assay at a density of 18,000 cells/well (100 μL) in a 384 well plate. CHOnfat/hM1 and CHOnfat/hM3 Growth Medium: 90% DMEM (Hi Glucose); 10% HI FBS; 2 mM L-glutamine; 0.1 mM NEAA; Pen-Strep; and 1 mg/ml Geneticin, are added. For M2Gqi5CHOnfat and M4Gqi5CHOnfat cells, an additional 600 μg/ml hygromycin is added.
Buffers. […] Dye Loading Buffer: Assay Buffer plus 1% Fetal Bovine Serum and Fluo-4AM/Pluronic Acid Mixture. […] 20% Pluronic Acid Solution stock, with a concentration of 0.04% in Buffer, 0.02% in Assay.
65 μL of 2 mM Fluo-4AM are mixed with 130 μL of 20% Pluronic Acid. The resulting solution and 650 μL FBS is added to the assay buffer for a total volume of 65 mL. Positive Controls: 4-Br-A23187: 10 mM in DMSO; final concentration 10 μM. Acetylcholine: 10 mM in water, working stock at both 20 μM and 30 μM in assay buffer, final concentration of 10 μM. This is used to check the maximum stimulation of the CHOK1/hM1 cells. 20 μM (2×) acetylcholine is added in the preincubation part of the assay, and the 30 μM (3×) stock is added in the second part. (EC20)Acetylcholine: 10 mM in water, working stock of 9 nM (3×), and final concentration in assay is 3 nM. This is used after the preincubation with test compounds. Addition of the EC20 Acetylcholine to each well with a test compound will ascertain any modulator activity. 24 wells contain 3 nM Acetylcholine alone as a control.
Determining Activity of Putative Compounds:
Four 96-well plates are combined into a 384-well plate using Mosquito Nanolitre Pipetting System by transferring 1 μl of serial diluted compounds to each well, and 1 mM acetylcholine (100× stock concentration) were added as a control. Using Term, 49 μl assay buffer is added to each well of the 384-well plate right before assay.
In a 96-well Whatman 2 ml Uniplate, 9 nM Acetylcholine (3×) is pipetted into wells corresponding to the screening compounds and into control wells. The 30 μM acetylcholine control (3×) is added into control wells and the 3× agonist plate is transferred into a 384-well plate.
Cells are washed three times with 100 μL of buffer, leaving 30 μL of buffer in each well. Using Multimek, 30 μL of Dye Loading Buffer is added into each well and incubated at 37° C., 5% CO2 for up to one hr.
After 60 min, the cells are washed three times with 100 μL of buffer, leaving 30 μL of buffer in each well. The cell plate, screening plate, and agonist addition plates are placed on the platform in the FLIPR and the door is closed. A signal test to check background fluorescence and basal fluorescence signal is performed. Laser intensity is adjusted if necessary.
4 min of preincubation with the test compounds is provided to determine any agonist activity on the M1 receptor by comparison to the 1 mM acetylcholine control. After preincubation, the EC20 value of acetylcholine (3 nM final) is added to determine any modulator activity.
The inflection point is calculated from the FLIPR values, and is a measure of activity.

[1] = CHOnfat/hM1 cells, FLIPR, 4 min preincubation, then EC20 acetylcholine (3 nM final), read-out: IP Value (inflection point)

Structure (SMILES)	EC50 [µM]	EC50 [1] [µM]
O=C(O)c1cn(Cc2ccc3c(c2)OCCO3)c2cccc(F)c2c1=O [Example 27]	0.029	–
O=C1Cc2cc(Cn3cc(C(=O)O)c(=O)c4c(F)cccc43)ccc2N1 [Example 53]	0.038	–
O=C(O)c1cn(Cc2cccc3ccncc23)c2cccc(F)c2c1=O [Example 73]	–	1.3
O=C(O)c1cn(Cc2ccc3cc(F)ccc3c2)c2cccc(F)c2c1=O [Example 3, 5-Fluoro-1-[(6-fluoro-2-naphthyl)methyl]-4-oxo-1,4-dihydroquinoline-3-carboxylic acid]	–	0.261
Cn1ncc2cc(Cn3cc(C(=O)O)c(=O)c4c(F)cccc43)ccc21 [Example 1, 5-Fluoro-1-[(1-methyl-1H-indazol-5-yl)methyl]-4-oxo-1,4-dihydroquinoline-3-carboxylic acid]	0.072	–
O=C(O)c1cn(Cc2cc3ccccc3[nH]2)c2cccc(F)c2c1=O [Example 58]	0.656	–
O=C(O)c1cn(Cc2ccc3[nH]cnc3c2)c2cccc(F)c2c1=O [Example 42]	–	0.229
O=C(O)c1cn(Cc2cc3ccccc3s2)c2cccc(F)c2c1=O [Example 56]	–	0.147
O=C(O)c1cn(Cc2ccc3ccccc3c2)c2c(F)cccc2c1=O [Example 4]	0.08	–
O=C(O)c1cn(Cc2ccc3[nH]ccc3c2)c2cccc(F)c2c1=O [Example 33]	0.093	–
O=C(O)c1cn(Cc2ccc3nccnc3c2)c2cccc(F)c2c1=O [Example 15]	–	0.501
